Laboratory results from patent US9796704B2, “Substituted quinazolines as receptor-type kinase inhibitors” (Symphony Evolution, Inc., priority 2002, dated 2017).
pIC50: −log10 of the molar value.

Molecular target: EGFR (Homo sapiens (Human), UniProt P00533)
Experiment: EGFR kinase inhibition, luciferase-coupled chemiluminescent assay (LCCA)
Conditions: read-out: EGFR IC50

EGFR, sequence (P00533 672-1210): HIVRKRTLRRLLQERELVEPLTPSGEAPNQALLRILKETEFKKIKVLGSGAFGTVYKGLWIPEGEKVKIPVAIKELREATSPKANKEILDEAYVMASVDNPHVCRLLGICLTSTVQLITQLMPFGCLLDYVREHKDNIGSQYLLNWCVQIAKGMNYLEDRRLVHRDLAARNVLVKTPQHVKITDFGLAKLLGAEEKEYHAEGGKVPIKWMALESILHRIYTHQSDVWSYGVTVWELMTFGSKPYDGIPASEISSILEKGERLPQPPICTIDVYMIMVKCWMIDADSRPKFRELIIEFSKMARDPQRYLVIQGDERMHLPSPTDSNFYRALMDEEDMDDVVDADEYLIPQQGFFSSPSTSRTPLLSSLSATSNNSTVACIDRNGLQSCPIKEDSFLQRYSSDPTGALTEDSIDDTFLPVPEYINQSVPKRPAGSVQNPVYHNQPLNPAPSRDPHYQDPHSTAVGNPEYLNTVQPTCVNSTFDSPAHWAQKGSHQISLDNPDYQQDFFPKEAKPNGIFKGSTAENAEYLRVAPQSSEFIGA

| SMILES | pIC50 |
| --- | --- |
| COc1cc2c(Nc3ccc(Cl)c(Cl)c3)ncnc2cc1OCc1ccc(Cl)nc1 [Example 171, 7-{[(6-chloropyridin-3-yl)methyl]oxy}-N-(3,4-dichlorophenyl)-6-(methyloxy)quinazolin-4-amine] | > 7.30 |
| CCN1CCC[C@H]1c1noc(COc2cc3ncnc(Nc4ccc(Cl)c(Cl)c4)c3cc2OC)n1 [Example 255, N-(3,4-dichlorophenyl)-7-[({3-[(2S)-1-ethylpyrrolidin-2-yl]-1,2,4-oxadiazol-5-yl}methyl)oxy]-6-(methyloxy)quinazolin-4-amine] | > 7.30 |
| COc1cc2c(Nc3ccc(Cl)c(Cl)c3)ncnc2cc1OCc1c(C)cc(C)cc1C [Example 178, N-(3,4-dichlorophenyl)-6-(methyloxy)-7-{[(2,4,6-trimethylphenyl)methyl]oxy}quinazolin-4-amine] | > 7.30 |
| COc1cc2c(Nc3ccc(Cl)c(Cl)c3)ncnc2cc1OCc1nc(-c2ccc(Cl)cc2)no1 [Example 168, 7-({[3-(4-chlorophenyl)-1,2,4-oxadiazol-5-yl]methyl}oxy)-N-(3,4-dichlorophenyl)-6-(methyloxy)quinazolin-4-amine] | > 7.30 |
| COc1cc2c(Nc3cc(F)ccc3F)ncnc2cc1O[C@@H]1CO[C@@H]2[C@H]1OC[C@H]2F [Example 91, 1,4:3,6-dianhydro-2-deoxy-5-O-[4-[(2,5-difluorophenyl)amino]-6-(methyloxy)quinazolin-7-yl]-2-fluoro-D-iditol] | > 7.30 |
| COc1cc2c(Nc3ccc(Br)c(Cl)c3F)ncnc2cc1O[C@@H]1CO[C@@H]2[C@H]1OC[C@H]2F [Example 102, 1,4:3,6-dianhydro-5-O-[4-[(4-bromo-3-chloro-2-fluorophenyl)amino]-6-(methyloxy)quinazolin-7-yl]-2-deoxy-2-fluoro-D-iditol] | > 7.30 |
| COc1cc2c(Nc3ccc(Cl)cc3)ncnc2cc1O[C@@H]1CO[C@@H]2[C@H]1OC[C@H]2F [Example 116, 1,4:3,6-dianhydro-5-O-[4-[(4-chlorophenyl)amino]-6-(methyloxy)quinazolin-7-yl]-2-deoxy-2-fluoro-D-iditol] | > 7.30 |
| COc1cc2c(Nc3ccc(Cl)c(Cl)c3)ncnc2cc1OCc1c(OC)ccc2cc(Br)ccc12 [Example 169, 7-({[6-bromo-2-(methyloxy)naphthalen-1-yl]methyl}oxy)-N-(3,4-dichlorophenyl)-6-(methyloxy)quinazolin-4-amine] | > 7.30 |
| COc1cc2c(Nc3ccc(F)c(Cl)c3)ncnc2cc1O[C@@H]1CO[C@@H]2[C@H]1OC[C@H]2F [Example 95, 1,4:3,6-dianhydro-5-O-[4-[(3-chloro-4-fluorophenyl)amino]-6-(methyloxy)quinazolin-7-yl]-2-deoxy-2-fluoro-D-iditol] | > 7.30 |
| COc1cc2c(Nc3ccc(Cl)c(Cl)c3)ncnc2cc1OCc1cc(Cl)cc2c1OCOC2 [Example 174, 7-{[(6-chloro-4H-1,3-benzodioxin-8-yl)methyl]oxy}-N-(3,4-dichlorophenyl)-6-(methyloxy)quinazolin-4-amine] | > 7.30 |
| COc1cc2c(Nc3ccc(Cl)c(Cl)c3)ncnc2cc1OCc1cc(-c2ccccc2)no1 [Example 177, N-(3,4-dichlorophenyl)-6-(methyloxy)-7-{[(3-phenylisoxazol-5-yl)methyl]oxy}quinazolin-4-amine] | > 7.30 |
| COc1cc2c(Nc3ccc(F)cc3C(F)(F)F)ncnc2cc1O[C@@H]1CO[C@@H]2[C@H]1OC[C@H]2F [Example 126, 1,4:3,6-dianhydro-2-deoxy-2-fluoro-5-O-[4-{[4-fluoro-2-(trifluoromethyl)phenyl]amino}-6-(methyloxy)quinazolin-7-yl]-D-iditol] | > 7.30 |
| COc1cc2c(Nc3cccc(C(F)(F)F)c3F)ncnc2cc1O[C@@H]1CO[C@@H]2[C@H]1OC[C@H]2F [Example 123, 1,4:3,6-dianhydro-2-deoxy-2-fluoro-5-O-[4-{[2-fluoro-3-(trifluoromethyl)phenyl]amino}-6-(methyloxy)quinazolin-7-yl]-D-iditol] | > 7.30 |
| COc1cc2c(Nc3cccc(Cl)c3C)ncnc2cc1O[C@@H]1CO[C@@H]2[C@H]1OC[C@H]2F [Example 110, 1,4:3,6-dianhydro-5-O-[4-[(3-chloro-2-methylphenyl)amino]-6-(methyloxy)quinazolin-7-yl]-2-deoxy-2-fluoro-D-iditol] | > 7.30 |
| COc1cc2c(Nc3ccc(Cl)c(Cl)c3)ncnc2cc1OCc1c(C(F)(F)F)nn(C)c1Oc1ccc(Cl)cc1Cl [Example 181, N-(3,4-dichlorophenyl)-7-({[5-[(2,4-dichlorophenyl)oxy]-1-methyl-3-(trifluoromethyl)-1H-pyrazol-4-yl]methyl}oxy)-6-(methyloxy)quinazolin-4-amine] | > 7.30 |
| C=C1CO[C@@H]2[C@@H](Oc3cc4ncnc(Nc5ccc(Br)c(Cl)c5)c4cc3OC)CO[C@H]12 [Example 81, 1,4:3,6-dianhydro-2-O-[4-[(4-bromo-3-chlorophenyl)amino]-6-(methyloxy)quinazolin-7-yl]-5-deoxy-5-methylidene-D-xylo-hexitol] | > 7.30 |

Further lines, results first:

| pIC50 | SMILES |
| --- | --- |
| > 7.30 | COc1cc2c(Nc3cccc(Cl)c3F)ncnc2cc1O[C@@H]1CO[C@@H]2[C@H]1OC[C@H]2F [Example 88, 1,4:3,6-dianhydro-5-O-[4-[(3-chloro-2-fluorophenyl)amino]-6-(methyloxy)quinazolin-7-yl]-2-deoxy-2-fluoro-D-iditol] |
| > 7.30 | COc1cc2c(Nc3ccc(Cl)c(Cl)c3)ncnc2cc1OCC1CNCCCO1 (stereo not drawn) [Example 152, N-(3,4-dichlorophenyl)-6-(methyloxy)-7-[(1,4-oxazepan-2-ylmethyl)oxy]quinazolin-4-amine] |
| > 7.30 | COc1cc2c(Nc3ccc(C)c(Br)c3)ncnc2cc1O[C@@H]1CO[C@@H]2[C@H]1OC[C@H]2F [Example 131, 1,4:3,6-dianhydro-5-O-[4-[(3-bromo-4-methylphenyl)amino]-6-(methyloxy)quinazolin-7-yl]-2-deoxy-2-fluoro-D-iditol] |
| > 7.30 | COc1cc2c(Nc3ccc(Cl)c(Cl)c3)ncnc2cc1OCC1CNCCO1 (stereo not drawn) [Example 144, N-(3,4-dichlorophenyl)-6-(methyloxy)-7-[(morpholin-2-ylmethyl)oxy]quinazolin-4-amine] |
| > 7.30 | COc1cc2c(Nc3ccc(F)cc3Br)ncnc2cc1O[C@@H]1CO[C@@H]2[C@H]1OC[C@H]2F [Example 86, 1,4:3,6-dianhydro-5-O-[4-[(2-bromo-4-fluorophenyl)amino]-6-(methyloxy)quinazolin-7-yl]-2-deoxy-2-fluoro-D-iditol] |
| > 7.30 | COC(=O)CCN1CCOC(COc2cc3ncnc(Nc4ccc(Cl)c(Cl)c4)c3cc2OC)C1 (stereo not drawn) [Example 276, methyl 3-[2-({[4-[(3,4-dichlorophenyl)amino]-6-(methyloxy)quinazolin-7-yl]oxy}methyl)morpholin-4-yl]propanoate] |
| > 7.30 | COc1cc2c(Nc3ccc(Br)c(Cl)c3)ncnc2cc1O[C@H]1CO[C@@H]2[C@@H](OC)[C@@H](OC)O[C@@H]21 [Example 82, methyl 3,6-anhydro-5-O-[4-[(4-bromo-3-chlorophenyl)amino]-6-(methyloxy)quinazolin-7-yl]-2-O-methyl-beta-L-idofuranoside] |
| > 7.30 | COc1cc2c(Nc3ccc(Cl)c(Cl)c3F)ncnc2cc1OCC1CCC2CCCCN2C1 (stereo not drawn) [Example 83, N-(3,4-dichloro-2-fluorophenyl)-6-(methyloxy)-7-[(octahydro-2H-quinolizin-3-ylmethyl)oxy]quinazolin-4-amine] |
| > 7.30 | COc1cc2c(Nc3ccc(F)c(F)c3)ncnc2cc1O[C@@H]1CO[C@@H]2[C@H]1OC[C@H]2F [Example 111, 1,4:3,6-dianhydro-2-deoxy-5-O-[4-[(3,4-difluorophenyl)amino]-6-(methyloxy)quinazolin-7-yl]-2-fluoro-D-iditol] |
| > 7.30 | COc1cc2c(Nc3ccc(Cl)c(Cl)c3)ncnc2cc1OCc1cnn(-c2ccccc2)c1 [Example 165, N-(3,4-dichlorophenyl)-6-(methyloxy)-7-{[(1-phenyl-1H-pyrazol-4-yl)methyl]oxy}quinazolin-4-amine] |
| 6.00 to 7.30 | COc1cc2c(Nc3ccc(Cl)c(Cl)c3F)ncnc2cc1OC[C@@H]1CN2CCCC[C@@H]2C(=O)N1 [Example 50, (3S,9aR)-3-({[4-[(3,4-dichloro-2-fluorophenyl)amino]-6-(methyloxy)quinazolin-7-yl]oxy}methyl)hexahydro-2H-pyrido[1,2-a]pyrazin-1(6H)-one] |
| > 7.30 | COc1cc2c(Nc3ccc(Cl)c(Cl)c3)ncnc2cc1OCc1csc(C)n1 [Example 173, N-(3,4-dichlorophenyl)-6-(methyloxy)-7-{[(2-methyl-1,3-thiazol-4-yl)methyl]oxy}quinazolin-4-amine] |
| > 7.30 | COc1cc2c(Nc3cc(C)cc(C)c3)ncnc2cc1O[C@@H]1CO[C@@H]2[C@H]1OC[C@H]2F [Example 133, 1,4:3,6-dianhydro-2-deoxy-5-O-[4-[(3,5-dimethylphenyl)amino]-6-(methyloxy)quinazolin-7-yl]-2-fluoro-D-iditol] |
| > 7.30 | COc1cc2c(Nc3ccccc3Br)ncnc2cc1O[C@@H]1CO[C@@H]2[C@H]1OC[C@H]2F [Example 128, 1,4:3,6-dianhydro-5-O-[4-[(2-bromophenyl)amino]-6-(methyloxy)quinazolin-7-yl]-2-deoxy-2-fluoro-D-iditol] |
| > 7.30 | COc1cc2c(Nc3cc(C(F)(F)F)ccc3Br)ncnc2cc1O[C@@H]1CO[C@@H]2[C@H]1OC[C@H]2F [Example 124, 1,4:3,6-dianhydro-5-O-[4-{[2-bromo-5-(trifluoromethyl)phenyl]amino}-6-(methyloxy)quinazolin-7-yl]-2-deoxy-2-fluoro-D-iditol] |
| > 7.30 | COc1cc2c(Nc3ccc(Cl)c(Cl)c3)ncnc2cc1OCc1nc2ccccc2s1 [Example 162, 7-[(1,3-benzothiazol-2-ylmethyl)oxy]-N-(3,4-dichlorophenyl)-6-(methyloxy)quinazolin-4-amine] |
| > 7.30 | COc1cc2c(Nc3ccc(Cl)c(Cl)c3)ncnc2cc1OCc1cccc2nsnc12 [Example 159, 7-[(2,1,3-benzothiadiazol-4-ylmethyl)oxy]-N-(3,4-dichlorophenyl)-6-(methyloxy)quinazolin-4-amine] |
